Reference: patent publication US20160090397A1, “Se-Adenosyl-L-Selenohomocysteine Selenoxide As A Modulator Of Methyltransferase And Other Activities” (priority 2014, published 2016)
Entries after “also recorded” stand apart in the source; their conditions may differ.

Key:
[1] = biological target: T1, catechol-O-methyltransferase (COMT) (Homo sapiens, UniProt P21964); details: in vitro; cited from earlier work
T1 sequence (P21964 1-271): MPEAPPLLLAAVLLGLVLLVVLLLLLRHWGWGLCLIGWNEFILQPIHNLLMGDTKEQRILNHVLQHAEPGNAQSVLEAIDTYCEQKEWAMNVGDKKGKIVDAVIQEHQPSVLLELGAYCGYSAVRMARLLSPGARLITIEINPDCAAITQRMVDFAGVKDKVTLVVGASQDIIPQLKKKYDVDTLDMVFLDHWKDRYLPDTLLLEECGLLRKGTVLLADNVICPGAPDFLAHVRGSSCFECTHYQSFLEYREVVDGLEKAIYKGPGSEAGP

[2] = biological target: protein methyltransferase II (Homo sapiens, UniProt P22061); details: in vitro; cited from earlier work
[3] = biological target: T1, catechol-O-methyltransferase (COMT); assay: Reduction upon incubation with methyltransferase COMT; type: biochemical
Procedure: (§1) However, SeAHO was not reduced upon incubation with the non-methyltransferase protein lysozyme (data not shown). […] The reduction of SeAHO by methyltransferases may result in the oxidation or modification of these enzymes. This property could be exploited to identify methyltransferases that are reactive with SeAHO, or, depending on the site of oxidation, this process may modulate the activities of methyltransferases. In other words, SeAHO may act as a covalent inhibitor (reactive or suicide inhibitor) or activator of these methyltransferases.

[4] = biological target: E. coli cyclopropane fatty acid synthase (Escherichia coli, UniProt P0A9H7); details: in vitro; cited from earlier work
[5] = biological target: histamine N-methyltransferase (HMT) (Homo sapiens, UniProt P50135); details: in vitro; cited from earlier work
[6] = tested on: viral mRNA methyltransferases; details: in vitro; cited from earlier work
[7] = Reduction of selenoxide/sulfoxide by thiols and thioethers at ambient temperature (C18 HPLC); type: physicochemical; details: for reduction by glutathione (GSH) / reduction by cysteine: ambient temperature; for reduction by glutathione (GSH): C18 HPLC
Excerpt: The sulfoxide SAHO analog was not reduced under these biological conditions with glutathione (GSH) or cysteine. The reduction of sulfoxides generally requires more forcing conditions.

[8] = biological target: T2, phenylethanolamine N-methyltransferase (PNMT) (Homo sapiens, UniProt P11086); details: in vitro; cited from earlier work
T2 sequence (P11086 1-282): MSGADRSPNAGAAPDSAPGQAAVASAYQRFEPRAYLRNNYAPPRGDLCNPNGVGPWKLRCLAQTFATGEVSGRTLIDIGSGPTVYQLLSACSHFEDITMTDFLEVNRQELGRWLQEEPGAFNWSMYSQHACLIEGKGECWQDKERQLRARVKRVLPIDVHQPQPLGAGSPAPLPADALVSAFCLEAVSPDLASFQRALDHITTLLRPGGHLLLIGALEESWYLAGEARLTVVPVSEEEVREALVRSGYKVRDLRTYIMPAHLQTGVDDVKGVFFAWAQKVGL

[9] = biological target: T1, catechol-O-methyltransferase (COMT); assay: COMT-catalysed oxidation of epinephrine to adrenochrome with SeAHO; type: biochemical; details: various COMT concentrations
Excerpt: This reactivity (redox reaction) conferred by SeAHO can be exploited to oxidize substrate compounds in a selective and specific manner.

[10] = biological target: T3, thiopurine methyltransferase (TPMT) (Homo sapiens, UniProt P51580); assay: Reduction upon incubation with methyltransferase TPMT; type: biochemical
T3 sequence (P51580 1-245): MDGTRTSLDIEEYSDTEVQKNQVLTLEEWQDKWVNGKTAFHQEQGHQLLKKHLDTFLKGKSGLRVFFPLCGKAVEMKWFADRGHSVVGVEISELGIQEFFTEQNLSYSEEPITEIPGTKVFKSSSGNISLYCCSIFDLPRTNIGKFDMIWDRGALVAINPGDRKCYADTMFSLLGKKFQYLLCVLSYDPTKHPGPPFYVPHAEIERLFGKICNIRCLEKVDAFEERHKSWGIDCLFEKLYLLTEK
Procedure: as §1

lysozyme = assay: Incubation with non-methyltransferase protein lysozyme; type: biochemical; details: data not shown
Procedure: as §1

[11] = Stability of SeAHO in aqueous solutions (HPLC, proton NMR); type: physicochemical
Procedure: Characterization of selenoxide SeAHO in an aqueous environment was of greater biological significance.
The selenoxide SeAHO generally appeared to be a 60:40 mixture by ^1H NMR in 50 mM phosphate buffers of D2O at measured pH's of 3 and 7.

[12] = biological target: T3, thiopurine methyltransferase (TPMT); assay: Oxidation of thionitrobenzoate (TNB), Se-SAHO as TPMT substrate (absorbance); type: biochemical
Excerpt: FIG. 1 depicts an absorbance spectrum for Se—SAHO as a thiopurine methyltransferase (TPMT) substrate wherein the oxidation of thionitrobenzoate (TNB) by H2O2 causes a clear shift in absorbance maxima from ˜410 nm to ˜325 nm.

Sequence of histamine N-methyltransferase (HMT) (P50135 whole entry, species assumed): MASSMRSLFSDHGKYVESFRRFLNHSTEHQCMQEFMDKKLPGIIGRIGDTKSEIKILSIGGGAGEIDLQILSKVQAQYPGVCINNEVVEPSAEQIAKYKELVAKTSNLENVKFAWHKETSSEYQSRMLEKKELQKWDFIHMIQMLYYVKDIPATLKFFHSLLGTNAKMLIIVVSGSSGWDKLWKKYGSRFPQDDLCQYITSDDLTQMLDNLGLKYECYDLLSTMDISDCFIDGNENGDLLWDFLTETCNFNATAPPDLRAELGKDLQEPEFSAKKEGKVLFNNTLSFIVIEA
Sequence of protein methyltransferase II (P22061 whole entry): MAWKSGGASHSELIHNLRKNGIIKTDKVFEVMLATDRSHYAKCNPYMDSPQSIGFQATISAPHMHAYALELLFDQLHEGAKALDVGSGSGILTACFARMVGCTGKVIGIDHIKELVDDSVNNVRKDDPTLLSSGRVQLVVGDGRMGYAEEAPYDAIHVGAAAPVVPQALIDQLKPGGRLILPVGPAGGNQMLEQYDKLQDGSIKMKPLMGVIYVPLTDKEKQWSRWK
Sequence of E. coli cyclopropane fatty acid synthase (P0A9H7 whole entry): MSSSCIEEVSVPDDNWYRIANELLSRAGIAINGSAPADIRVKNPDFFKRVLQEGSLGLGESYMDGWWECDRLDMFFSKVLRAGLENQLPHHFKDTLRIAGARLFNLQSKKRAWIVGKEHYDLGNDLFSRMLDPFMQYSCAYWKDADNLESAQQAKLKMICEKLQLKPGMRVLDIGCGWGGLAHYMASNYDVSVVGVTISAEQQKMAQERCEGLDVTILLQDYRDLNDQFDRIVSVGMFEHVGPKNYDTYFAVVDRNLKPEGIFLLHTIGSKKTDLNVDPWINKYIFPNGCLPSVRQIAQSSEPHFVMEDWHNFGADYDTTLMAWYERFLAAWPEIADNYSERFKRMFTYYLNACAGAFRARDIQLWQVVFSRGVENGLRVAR

| Molecule | inhibition of COMT [1] | inhibition of protein methyltransferase II [2] | reduction upon incubation with COMT [3] | inhibition of E. coli cyclopropane fatty acid synthase [4] | inhibition of HMT [5] | inhibition of viral mRNA methyltransferases [6] | reduction by glutathione (GSH) [7] | reduction by cysteine ([7]; data not shown) | inhibition of PNMT [8] | COMT-catalysed oxidation of epinephrine to adrenochrome [9] | reduction upon incubation with TPMT [10] | reduction upon incubation with lysozyme (lysozyme) | reduction by thioether methionine ([7]; data not shown) | decomposition by HPLC ([11]; after 2 weeks or when prepared in pure deionized water) | decomposition by NMR ([11]; pH 12 phosphate buffer) | stability to hydrolysis of the C1′-adenine bond / degradation ([11]; phosphate buffered aqueous solutions, pH 3-12, ambient temperature, at least three hours, HPLC or proton NMR) | oxidation of TNB (shift in absorbance maxima) [12] |
| --- | --- | --- | --- | --- | --- | --- | --- | --- | --- | --- | --- | --- | --- | --- | --- | --- | --- |
| Nc1ncnc2c1ncn2[C@@H]1O[C@H](C[S+]([O-])CC[C@H](N)C(=O)O)[C@@H](O)[C@H]1O (some centres unmarked) [SAHO] | inhibitor | inhibitor | remains oxidized | inhibitor | inhibitor | inhibitor | not reduced | not reduced | inhibitor | – | – | – | – | – | – | – | – |
| Nc1ncnc2c1ncn2[C@@H]1O[C@H](C[Se](=O)CC[C@H](N)C(=O)O)C(O)[C@@H]1O (some centres unmarked) [SeAHO, Se-Adenosylselenohomocysteine selenoxide] | – | – | reduced to Se-adenosyl-L-selenohomocysteine (SeAH) | – | – | – | readily reduced | also reduced; also recorded: readily reduced | – | reacts with epinephrine to form adrenochrome at a rate dependent on COMT concentration; also recorded: catalyzes the oxidation of epinephrine with SeAHO and the production of adrenochrome and SeAH | reduced to Se-adenosyl-L-selenohomocysteine (SeAH) | not reduced | not by thioethers methionine | some decomposition was observed | only a very small amount of decomposition was observed | completely stable | – |
| Se-Adenosylselenohomocysteine selenoxide [SeAHO] | – | – | – | – | – | – | – | – | – | – | – | – | – | – | – | – | able to oxidize TNB |
